The source of these data is ChEMBL document CHEMBL5465560, “Selectivity Literature for EUbOPEN Chemogenomic Library” (2024).

The target of assay [1] is T1, Phosphorylase b kinase gamma catalytic chain, liver/testis isoform (Homo sapiens) (UniProt P15735).
T1 sequence (whole entry): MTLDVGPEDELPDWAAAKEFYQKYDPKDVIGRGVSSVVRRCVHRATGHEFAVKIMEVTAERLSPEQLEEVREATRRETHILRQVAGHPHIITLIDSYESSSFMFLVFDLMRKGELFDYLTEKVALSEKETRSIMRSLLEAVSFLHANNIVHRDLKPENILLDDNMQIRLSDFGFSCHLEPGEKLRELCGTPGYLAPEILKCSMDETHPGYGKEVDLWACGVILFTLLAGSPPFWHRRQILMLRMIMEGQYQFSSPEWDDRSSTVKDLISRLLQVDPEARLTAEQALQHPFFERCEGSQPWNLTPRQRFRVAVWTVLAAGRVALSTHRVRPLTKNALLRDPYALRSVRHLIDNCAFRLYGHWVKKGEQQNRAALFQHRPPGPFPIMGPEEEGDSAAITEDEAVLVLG
To be noted: at 10 µM.

Assay [2] has as its target Calcium/calmodulin-dependent protein kinase type 1 (Homo sapiens) (UniProt Q14012). The note with it: at 10 µM.
Assay [3] addresses Ephrin type-A receptor 5 (Homo sapiens) (UniProt P54756). Nature of the assay: Selectivity interaction (KinomeScan (DiscoverX)) EUB0000092b EPHA5. To be noted: at 10 µM.
The target of assay [4] is T2, Serine/threonine-protein kinase ULK3 (Homo sapiens) (UniProt Q6PHR2).
T2 sequence (whole entry): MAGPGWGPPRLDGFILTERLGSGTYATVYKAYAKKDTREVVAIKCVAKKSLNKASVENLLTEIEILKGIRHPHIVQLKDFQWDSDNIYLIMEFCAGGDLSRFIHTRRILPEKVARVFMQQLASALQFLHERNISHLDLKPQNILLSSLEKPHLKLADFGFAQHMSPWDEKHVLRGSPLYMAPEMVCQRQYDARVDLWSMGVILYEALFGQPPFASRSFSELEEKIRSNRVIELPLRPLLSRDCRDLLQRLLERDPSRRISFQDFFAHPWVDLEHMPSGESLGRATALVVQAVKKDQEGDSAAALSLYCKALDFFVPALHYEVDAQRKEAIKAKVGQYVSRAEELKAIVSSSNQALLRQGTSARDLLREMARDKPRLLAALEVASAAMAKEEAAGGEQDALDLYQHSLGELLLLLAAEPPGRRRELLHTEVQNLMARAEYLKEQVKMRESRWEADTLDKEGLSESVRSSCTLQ
Description: Selectivity interaction (KinomeScan (DiscoverX)) EUB0000092b ULK3. To be noted: at 10 µM.

The target of assay [5] is T3, Mitogen-activated protein kinase kinase kinase 5 (Homo sapiens) (UniProt Q99683).
T3 sequence (whole entry): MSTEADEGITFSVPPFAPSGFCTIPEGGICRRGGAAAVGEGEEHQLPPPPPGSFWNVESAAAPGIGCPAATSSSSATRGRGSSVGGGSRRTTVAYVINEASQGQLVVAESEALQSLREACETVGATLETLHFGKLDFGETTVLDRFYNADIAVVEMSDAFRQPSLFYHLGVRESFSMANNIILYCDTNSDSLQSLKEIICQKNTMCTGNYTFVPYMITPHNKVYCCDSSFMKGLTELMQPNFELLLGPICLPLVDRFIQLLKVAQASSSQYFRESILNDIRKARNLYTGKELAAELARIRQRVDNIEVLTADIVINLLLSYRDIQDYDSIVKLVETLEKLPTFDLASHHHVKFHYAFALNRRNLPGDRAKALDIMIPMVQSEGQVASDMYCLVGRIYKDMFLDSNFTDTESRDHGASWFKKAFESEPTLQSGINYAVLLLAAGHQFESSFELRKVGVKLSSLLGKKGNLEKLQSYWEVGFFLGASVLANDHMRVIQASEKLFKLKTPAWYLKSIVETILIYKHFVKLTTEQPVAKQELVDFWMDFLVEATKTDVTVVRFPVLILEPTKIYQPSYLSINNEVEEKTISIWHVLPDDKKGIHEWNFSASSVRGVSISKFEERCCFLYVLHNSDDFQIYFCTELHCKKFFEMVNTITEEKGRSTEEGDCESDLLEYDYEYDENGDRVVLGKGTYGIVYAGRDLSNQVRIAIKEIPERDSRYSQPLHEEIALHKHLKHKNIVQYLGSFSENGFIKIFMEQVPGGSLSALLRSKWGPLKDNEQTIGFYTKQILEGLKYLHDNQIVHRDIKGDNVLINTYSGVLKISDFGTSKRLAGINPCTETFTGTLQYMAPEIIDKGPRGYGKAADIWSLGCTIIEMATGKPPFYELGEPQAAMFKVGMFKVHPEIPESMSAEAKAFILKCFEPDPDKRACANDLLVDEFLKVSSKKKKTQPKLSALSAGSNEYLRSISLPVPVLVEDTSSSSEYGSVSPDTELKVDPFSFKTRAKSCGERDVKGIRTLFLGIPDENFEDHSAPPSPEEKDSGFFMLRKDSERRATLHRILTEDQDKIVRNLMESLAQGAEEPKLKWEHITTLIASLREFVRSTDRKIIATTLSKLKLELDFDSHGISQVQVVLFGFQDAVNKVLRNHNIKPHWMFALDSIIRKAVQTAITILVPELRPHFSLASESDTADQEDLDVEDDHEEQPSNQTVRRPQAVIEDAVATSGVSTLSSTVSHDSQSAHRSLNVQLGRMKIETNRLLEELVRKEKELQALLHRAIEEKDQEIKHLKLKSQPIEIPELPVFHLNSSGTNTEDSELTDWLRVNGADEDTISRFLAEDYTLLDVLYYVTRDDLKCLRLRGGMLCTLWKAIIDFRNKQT
Nature of the assay: Selectivity interaction (KinomeScan (DiscoverX)) EUB0001049a MAP3K5. To be noted: at 1 µM.

Assay [6] addresses Prostacyclin receptor (Homo sapiens) (UniProt P43119). Nature of the assay: Selectivity interaction (Eurofins CEREP Diversity Profile (receptors and ion channels)) EUB0000279b PTGIR. To be noted: at 10 µM.
For assay [7], the target named is Tyrosine-protein kinase receptor UFO (Homo sapiens) (UniProt P30530). Nature of the assay: Selectivity interaction (Kinase panel (Invitrogen)) EUB0000639a AXL. The note with it: at 200 nM.
Tyrosine-protein kinase receptor UFO (Homo sapiens), sequence (P30530 whole entry): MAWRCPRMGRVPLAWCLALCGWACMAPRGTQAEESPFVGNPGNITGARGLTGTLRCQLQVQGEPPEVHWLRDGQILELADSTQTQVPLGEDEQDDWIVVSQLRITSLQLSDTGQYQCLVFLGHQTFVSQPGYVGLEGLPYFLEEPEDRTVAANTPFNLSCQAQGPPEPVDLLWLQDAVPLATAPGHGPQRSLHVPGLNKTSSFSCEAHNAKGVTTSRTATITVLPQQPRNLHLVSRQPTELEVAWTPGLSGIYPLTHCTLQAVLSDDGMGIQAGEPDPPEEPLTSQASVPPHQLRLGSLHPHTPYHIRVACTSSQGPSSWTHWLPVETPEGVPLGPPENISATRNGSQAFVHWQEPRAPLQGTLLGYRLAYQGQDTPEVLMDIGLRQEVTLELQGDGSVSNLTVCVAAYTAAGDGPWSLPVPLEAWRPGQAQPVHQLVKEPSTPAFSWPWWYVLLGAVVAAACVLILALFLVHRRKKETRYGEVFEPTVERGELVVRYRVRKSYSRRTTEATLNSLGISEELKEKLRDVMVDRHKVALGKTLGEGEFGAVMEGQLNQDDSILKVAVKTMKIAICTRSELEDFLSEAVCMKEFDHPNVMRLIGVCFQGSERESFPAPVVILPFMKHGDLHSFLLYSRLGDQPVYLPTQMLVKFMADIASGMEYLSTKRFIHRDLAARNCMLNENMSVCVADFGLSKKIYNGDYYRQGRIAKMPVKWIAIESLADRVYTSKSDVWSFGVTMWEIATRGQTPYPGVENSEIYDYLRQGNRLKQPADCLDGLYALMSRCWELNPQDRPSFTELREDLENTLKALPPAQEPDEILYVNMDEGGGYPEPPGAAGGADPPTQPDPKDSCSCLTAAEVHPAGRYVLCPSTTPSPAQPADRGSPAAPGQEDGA

Ephrin type-A receptor 5 (Homo sapiens), sequence (P54756 whole entry): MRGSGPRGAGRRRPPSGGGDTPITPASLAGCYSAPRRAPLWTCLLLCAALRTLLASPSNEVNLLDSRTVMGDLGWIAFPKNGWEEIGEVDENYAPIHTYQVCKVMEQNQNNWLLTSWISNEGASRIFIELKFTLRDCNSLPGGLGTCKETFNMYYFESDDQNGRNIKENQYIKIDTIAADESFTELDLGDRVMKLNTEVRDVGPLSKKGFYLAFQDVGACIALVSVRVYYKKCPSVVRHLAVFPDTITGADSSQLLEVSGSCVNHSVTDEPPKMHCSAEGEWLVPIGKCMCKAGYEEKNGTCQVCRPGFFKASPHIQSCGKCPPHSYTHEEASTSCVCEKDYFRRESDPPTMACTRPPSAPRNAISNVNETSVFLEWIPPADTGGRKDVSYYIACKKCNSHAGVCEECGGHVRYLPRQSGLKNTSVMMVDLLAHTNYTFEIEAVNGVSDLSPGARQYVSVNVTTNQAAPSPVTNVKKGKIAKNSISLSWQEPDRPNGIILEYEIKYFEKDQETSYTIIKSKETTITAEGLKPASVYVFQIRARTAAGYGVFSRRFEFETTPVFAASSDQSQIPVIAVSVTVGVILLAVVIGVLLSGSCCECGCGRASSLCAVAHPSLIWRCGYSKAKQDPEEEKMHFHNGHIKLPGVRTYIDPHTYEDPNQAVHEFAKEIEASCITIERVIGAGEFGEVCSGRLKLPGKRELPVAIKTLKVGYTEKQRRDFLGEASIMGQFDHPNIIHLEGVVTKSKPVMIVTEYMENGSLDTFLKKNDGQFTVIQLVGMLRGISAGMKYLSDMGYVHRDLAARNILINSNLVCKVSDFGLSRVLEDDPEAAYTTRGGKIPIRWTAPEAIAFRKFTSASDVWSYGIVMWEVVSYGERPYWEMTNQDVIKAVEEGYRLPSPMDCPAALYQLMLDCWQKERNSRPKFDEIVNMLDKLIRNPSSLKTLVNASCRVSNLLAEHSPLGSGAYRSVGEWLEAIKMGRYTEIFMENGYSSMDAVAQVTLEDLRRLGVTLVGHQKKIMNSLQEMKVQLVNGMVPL
Prostacyclin receptor (Homo sapiens), sequence (P43119 whole entry): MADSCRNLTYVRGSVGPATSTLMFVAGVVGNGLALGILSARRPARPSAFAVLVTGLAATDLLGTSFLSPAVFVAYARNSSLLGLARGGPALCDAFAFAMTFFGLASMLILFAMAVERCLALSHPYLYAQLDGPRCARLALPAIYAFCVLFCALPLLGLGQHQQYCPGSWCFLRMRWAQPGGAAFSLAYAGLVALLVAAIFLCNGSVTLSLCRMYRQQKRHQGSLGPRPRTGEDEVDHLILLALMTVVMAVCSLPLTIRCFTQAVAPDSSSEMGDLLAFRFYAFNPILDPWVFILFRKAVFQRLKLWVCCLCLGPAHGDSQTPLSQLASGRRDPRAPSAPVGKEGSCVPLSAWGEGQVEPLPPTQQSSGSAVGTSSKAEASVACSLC
Calcium/calmodulin-dependent protein kinase type 1 (Homo sapiens), sequence (Q14012 whole entry, looked up): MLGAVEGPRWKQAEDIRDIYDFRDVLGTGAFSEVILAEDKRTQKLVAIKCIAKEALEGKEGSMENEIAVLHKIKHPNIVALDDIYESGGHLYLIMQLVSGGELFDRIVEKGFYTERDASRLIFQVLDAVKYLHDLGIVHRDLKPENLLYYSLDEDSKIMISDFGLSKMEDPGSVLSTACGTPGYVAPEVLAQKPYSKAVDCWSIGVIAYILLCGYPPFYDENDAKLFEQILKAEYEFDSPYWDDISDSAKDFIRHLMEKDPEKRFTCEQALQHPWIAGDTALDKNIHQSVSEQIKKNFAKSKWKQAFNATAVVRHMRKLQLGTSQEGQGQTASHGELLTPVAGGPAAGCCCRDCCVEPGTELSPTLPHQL

Consider `Cc1cc([C@@H](C)Nc2ccccc2C(=O)O)c2nc(N3CCOCC3)cc(=O)n2c1` [AZD-6482], for which the % of control in assay [1] was found to be 100%.

In the case of `CCN(CC)CCCCNc1ncc2cc(-c3cc(OC)cc(OC)c3)c(NC(=O)NC(C)(C)C)nc2n1`, in assay [2], the % of control was 100%. For the compound `CCC(=O)N1CCN(c2ccc(-n3c(=O)ccc4cnc5ccc(-c6cnc7ccccc7c6)cc5c43)cc2C(F)(F)F)CC1`, the % of control in assay [3] and in assay [4] was 100% throughout.

`COc1cc(Nc2nc(C)cc(-c3cnn4nc(OC)ccc34)n2)cc(C(F)(F)F)c1` came in with a % of control in assay [5] of 80%. Consider `CC(=O)c1cc(-c2ccccc2OCC2CC2)c2ncccn12`, for which the % of control in assay [6] was determined as 108%.

In assay [7], `CC[C@@H]1[C@H](F)C(=O)N[C@@H]1COc1nccc2cc(C(N)=O)c(OC)cc12` [ZIMLOVISERTIB] registered a % of inhibition of 12.2%.
